Laboratory results as given in the supplement of paper PMC6411743.

Compound: Nc1ncnc2c1ncn2[C@@H]1O[C@H](COP(=O)(O)OP(=O)(O)OP(=O)(O)O)[C@@H](O)[C@H]1O [adenosine triphosphate]
Test: pEC50 of ATP-induced change in protein thermal stability (2D-TPP)
How it was run: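 Soluble protein was quantified by TMT LC-MS/MS after ultracentrifugation of Jurkat crude lysate that had been dosed at five concentrations including vehicle (10 min, room temperature), heated at 12 temperatures of 42–63.9 °C for 3 min, and incubated with NP40 and benzonase at 4 °C for 60 min. Fold changes against vehicle at each temperature were median-normalised, and pEC50 was derived from per-replicate dose-response fits over adjacent temperature pairs. Hits were called with permutation-based false discovery rate control in three independent experiments.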
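Note: lysate dosed with Na-ATP at 0 0.005 0.05 0.5 and 2 mM.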

Sequence of UniProt P43686 (P43686 whole entry): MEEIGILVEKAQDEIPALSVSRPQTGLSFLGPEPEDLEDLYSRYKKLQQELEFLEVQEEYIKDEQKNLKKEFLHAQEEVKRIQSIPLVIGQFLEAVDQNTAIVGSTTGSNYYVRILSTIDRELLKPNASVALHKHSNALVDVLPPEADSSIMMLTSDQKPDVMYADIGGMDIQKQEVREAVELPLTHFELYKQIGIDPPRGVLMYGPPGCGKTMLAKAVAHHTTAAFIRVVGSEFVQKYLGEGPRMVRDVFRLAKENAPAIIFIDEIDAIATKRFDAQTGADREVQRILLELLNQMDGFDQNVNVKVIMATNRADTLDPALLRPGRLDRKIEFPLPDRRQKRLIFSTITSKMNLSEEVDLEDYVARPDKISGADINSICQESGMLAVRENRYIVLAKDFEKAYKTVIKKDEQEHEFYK
Sequence of UniProt P57088 (P57088 whole entry): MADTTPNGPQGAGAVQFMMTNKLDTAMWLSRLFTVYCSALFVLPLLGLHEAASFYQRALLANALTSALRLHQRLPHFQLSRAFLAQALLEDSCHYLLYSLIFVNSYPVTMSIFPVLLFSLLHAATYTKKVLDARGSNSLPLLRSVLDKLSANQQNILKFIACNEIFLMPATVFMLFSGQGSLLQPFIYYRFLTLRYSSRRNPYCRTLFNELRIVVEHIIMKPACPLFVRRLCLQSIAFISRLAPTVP
Sequence of UniProt Q9NZN8 (Q9NZN8 whole entry): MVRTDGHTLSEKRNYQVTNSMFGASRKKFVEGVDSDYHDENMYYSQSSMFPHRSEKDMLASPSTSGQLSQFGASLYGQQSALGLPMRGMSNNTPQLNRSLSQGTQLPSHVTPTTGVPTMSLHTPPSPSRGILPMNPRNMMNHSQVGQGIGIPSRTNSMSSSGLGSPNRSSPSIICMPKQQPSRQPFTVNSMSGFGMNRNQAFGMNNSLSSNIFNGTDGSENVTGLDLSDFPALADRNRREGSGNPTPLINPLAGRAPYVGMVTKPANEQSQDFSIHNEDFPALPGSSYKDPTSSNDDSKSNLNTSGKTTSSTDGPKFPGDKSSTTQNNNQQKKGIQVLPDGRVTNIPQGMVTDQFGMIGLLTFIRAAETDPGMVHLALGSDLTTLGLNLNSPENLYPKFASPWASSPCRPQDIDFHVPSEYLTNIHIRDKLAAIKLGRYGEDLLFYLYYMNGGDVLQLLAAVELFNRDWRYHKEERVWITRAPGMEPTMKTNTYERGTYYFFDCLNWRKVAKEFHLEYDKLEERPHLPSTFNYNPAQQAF
Sequence of UniProt Q13588 (Q13588 whole entry): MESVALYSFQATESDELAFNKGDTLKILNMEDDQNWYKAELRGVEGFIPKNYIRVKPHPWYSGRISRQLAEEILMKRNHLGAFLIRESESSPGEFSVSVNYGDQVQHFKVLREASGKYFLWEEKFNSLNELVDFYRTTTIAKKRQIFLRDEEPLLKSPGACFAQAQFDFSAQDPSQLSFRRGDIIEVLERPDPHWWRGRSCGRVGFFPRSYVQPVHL
Sequence of UniProt P04350 (P04350 whole entry): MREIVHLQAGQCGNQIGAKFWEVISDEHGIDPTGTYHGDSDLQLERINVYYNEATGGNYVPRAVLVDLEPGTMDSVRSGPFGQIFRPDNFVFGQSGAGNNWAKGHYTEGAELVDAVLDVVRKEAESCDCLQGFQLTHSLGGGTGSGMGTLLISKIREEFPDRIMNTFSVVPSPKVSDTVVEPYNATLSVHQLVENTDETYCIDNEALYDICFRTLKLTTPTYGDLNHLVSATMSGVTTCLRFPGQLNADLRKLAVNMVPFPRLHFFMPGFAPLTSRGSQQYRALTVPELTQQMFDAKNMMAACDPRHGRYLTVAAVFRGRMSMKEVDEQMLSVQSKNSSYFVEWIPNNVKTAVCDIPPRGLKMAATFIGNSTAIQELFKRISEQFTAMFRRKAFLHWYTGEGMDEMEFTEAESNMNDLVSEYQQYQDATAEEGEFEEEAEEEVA
Sequence of UniProt Q8N4C8 (Q8N4C8 whole entry, looked up): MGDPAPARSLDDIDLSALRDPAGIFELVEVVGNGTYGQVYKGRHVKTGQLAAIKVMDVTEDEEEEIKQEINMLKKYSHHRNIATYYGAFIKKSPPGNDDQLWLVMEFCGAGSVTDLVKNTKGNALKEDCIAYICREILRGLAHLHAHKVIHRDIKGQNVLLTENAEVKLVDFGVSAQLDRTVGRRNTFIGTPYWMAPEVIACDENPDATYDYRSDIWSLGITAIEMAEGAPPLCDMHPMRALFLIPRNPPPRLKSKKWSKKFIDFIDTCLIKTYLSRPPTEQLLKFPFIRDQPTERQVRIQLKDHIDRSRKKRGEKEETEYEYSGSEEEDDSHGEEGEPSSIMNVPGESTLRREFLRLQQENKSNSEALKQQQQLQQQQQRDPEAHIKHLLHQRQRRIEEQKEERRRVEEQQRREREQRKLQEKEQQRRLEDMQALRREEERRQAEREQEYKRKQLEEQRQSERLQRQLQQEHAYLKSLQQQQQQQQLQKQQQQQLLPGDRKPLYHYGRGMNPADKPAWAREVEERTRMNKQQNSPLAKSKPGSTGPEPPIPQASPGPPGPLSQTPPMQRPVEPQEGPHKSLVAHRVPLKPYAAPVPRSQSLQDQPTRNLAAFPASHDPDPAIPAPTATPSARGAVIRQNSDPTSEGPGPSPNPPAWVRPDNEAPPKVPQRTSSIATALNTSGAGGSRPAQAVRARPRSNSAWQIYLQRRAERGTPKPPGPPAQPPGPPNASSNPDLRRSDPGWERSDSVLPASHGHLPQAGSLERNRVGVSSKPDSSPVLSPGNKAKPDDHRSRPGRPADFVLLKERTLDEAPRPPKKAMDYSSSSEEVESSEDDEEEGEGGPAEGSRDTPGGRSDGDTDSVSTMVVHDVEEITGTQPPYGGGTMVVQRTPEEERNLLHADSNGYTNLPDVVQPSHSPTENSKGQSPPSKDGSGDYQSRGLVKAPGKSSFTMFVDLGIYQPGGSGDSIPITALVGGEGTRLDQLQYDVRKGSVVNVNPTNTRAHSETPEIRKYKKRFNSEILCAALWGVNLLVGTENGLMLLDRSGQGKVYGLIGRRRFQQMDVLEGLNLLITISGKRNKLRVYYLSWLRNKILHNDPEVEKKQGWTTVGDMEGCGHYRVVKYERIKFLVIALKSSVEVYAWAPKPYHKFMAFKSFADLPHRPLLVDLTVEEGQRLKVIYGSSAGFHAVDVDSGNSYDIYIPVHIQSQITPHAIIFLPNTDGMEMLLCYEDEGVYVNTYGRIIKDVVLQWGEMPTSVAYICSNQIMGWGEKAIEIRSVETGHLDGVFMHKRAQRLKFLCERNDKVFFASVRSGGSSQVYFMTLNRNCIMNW
Sequence of UniProt P06493 (P06493 whole entry, looked up): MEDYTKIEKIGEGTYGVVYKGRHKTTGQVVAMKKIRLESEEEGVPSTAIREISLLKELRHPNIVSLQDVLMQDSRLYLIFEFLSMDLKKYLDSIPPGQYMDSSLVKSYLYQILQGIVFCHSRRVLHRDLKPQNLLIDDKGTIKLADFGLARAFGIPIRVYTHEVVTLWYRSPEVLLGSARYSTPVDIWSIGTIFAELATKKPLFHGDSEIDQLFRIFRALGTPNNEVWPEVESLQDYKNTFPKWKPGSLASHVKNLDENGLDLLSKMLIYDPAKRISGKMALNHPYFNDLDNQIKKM
Sequence of UniProt P33527 (P33527 whole entry, looked up): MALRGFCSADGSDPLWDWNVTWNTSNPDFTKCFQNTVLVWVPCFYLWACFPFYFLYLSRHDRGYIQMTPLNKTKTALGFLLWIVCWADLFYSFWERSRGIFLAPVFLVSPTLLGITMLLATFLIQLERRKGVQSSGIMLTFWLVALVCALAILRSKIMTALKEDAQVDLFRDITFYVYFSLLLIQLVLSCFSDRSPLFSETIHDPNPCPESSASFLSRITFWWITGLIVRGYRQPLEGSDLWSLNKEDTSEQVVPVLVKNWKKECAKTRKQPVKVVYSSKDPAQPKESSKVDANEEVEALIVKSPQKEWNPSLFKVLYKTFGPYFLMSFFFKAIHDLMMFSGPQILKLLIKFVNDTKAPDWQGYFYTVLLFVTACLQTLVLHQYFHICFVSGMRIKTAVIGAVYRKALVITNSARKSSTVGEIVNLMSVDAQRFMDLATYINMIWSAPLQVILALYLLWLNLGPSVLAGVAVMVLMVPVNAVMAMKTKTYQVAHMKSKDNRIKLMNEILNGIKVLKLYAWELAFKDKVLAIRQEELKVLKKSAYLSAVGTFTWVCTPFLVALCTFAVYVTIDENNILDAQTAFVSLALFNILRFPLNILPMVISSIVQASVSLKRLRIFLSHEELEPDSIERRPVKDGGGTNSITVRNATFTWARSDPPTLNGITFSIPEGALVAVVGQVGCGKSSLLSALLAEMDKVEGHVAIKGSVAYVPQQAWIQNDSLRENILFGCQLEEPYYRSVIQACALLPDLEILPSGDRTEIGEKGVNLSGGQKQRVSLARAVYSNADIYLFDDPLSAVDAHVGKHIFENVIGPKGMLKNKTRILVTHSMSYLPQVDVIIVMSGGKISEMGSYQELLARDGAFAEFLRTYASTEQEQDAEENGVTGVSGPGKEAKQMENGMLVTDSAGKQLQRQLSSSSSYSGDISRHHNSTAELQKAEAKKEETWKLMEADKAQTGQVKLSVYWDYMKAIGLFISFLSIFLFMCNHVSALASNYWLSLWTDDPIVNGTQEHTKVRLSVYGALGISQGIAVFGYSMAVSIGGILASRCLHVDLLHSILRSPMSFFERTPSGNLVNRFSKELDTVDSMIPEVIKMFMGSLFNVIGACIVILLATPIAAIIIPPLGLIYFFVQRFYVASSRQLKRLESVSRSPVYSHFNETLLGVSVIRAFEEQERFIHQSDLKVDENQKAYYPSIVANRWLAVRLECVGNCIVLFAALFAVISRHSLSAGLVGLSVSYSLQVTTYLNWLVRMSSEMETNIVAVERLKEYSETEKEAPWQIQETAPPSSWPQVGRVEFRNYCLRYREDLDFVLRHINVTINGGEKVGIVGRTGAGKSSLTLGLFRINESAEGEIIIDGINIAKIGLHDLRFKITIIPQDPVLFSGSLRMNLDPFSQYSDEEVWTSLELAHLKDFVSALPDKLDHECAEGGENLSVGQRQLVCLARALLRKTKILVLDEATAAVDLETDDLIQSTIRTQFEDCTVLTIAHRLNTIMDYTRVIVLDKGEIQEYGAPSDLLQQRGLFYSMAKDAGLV

pEC50 | Target
4.17 | DHX57 (effect direction: stabilized) (UniProt Q6P158)
3.44 | MLKL (effect direction: stabilized) (UniProt Q8NB16)
3.02 | PCID2 (effect direction: stabilized) (UniProt Q5JVF3)
2.8 | HSPA14 (effect direction: stabilized) (UniProt Q0VDF9)
3.04 | TMEM33 (effect direction: stabilized) (UniProt P57088)
2.86 | CAPNS1 (effect direction: stabilized) (UniProt P04632)
3.4 | ACTL6A (effect direction: stabilized) (UniProt O96019)
3.21 | PMS2 (effect direction: stabilized) (UniProt P54278)
5.16 | RAB3GAP2 (effect direction: stabilized) (UniProt Q9H2M9)
2.93 | UniProt P06493 (effect direction: stabilized)
4.1 | MYH10 (effect direction: stabilized) (UniProt P35580)
< 2.7 | PACSIN2 (effect direction: stabilized) (UniProt Q9UNF0)
< 2.7 | UniProt Q08623 (effect direction: destabilized)
< 2.7 | ZCCHC8 (effect direction: stabilized) (UniProt Q6NZY4)
3.89 | AGPAT5 (effect direction: stabilized) (UniProt Q9NUQ2)
4.02 | PSMC3 (effect direction: stabilized) (UniProt P17980)
< 2.7 | RPL10A (effect direction: destabilized) (UniProt P62906)
4.92 | RPL34 (effect direction: destabilized) (UniProt P49207)
3.69 | ACSL6 (effect direction: stabilized) (UniProt Q9UKU0)
3.65 | PAPSS1 (effect direction: stabilized) (UniProt O43252)
2.83 | PATL1 (effect direction: stabilized) (UniProt Q86TB9)
3.06 | UniProt Q8NBU5 (effect direction: stabilized)
3.89 | UniProt P51812 (effect direction: stabilized)
< 2.7 | UniProt Q9BQ75 (effect direction: stabilized)

pEC50 | Target
3.12 | TBP (effect direction: destabilized) (UniProt P20226)
< 2.7 | UniProt Q8WYJ6 (effect direction: stabilized)
< 2.7 | DCPS (effect direction: stabilized) (UniProt Q96C86)
3.37 | UniProt P49841 (effect direction: stabilized)
3.75 | DDX19A (effect direction: stabilized) (UniProt Q9NUU7)
3 | UniProt P62899 (effect direction: destabilized)
2.88 | ZNF148 (effect direction: stabilized) (UniProt Q9UQR1)
3.64 | SRPK1 (effect direction: stabilized) (UniProt Q96SB4)
4.21 | GLUD1 (effect direction: stabilized) (UniProt P00367)
2.71 | EIF4G1 (effect direction: stabilized) (UniProt Q04637)
3.33 | PRPS2 (effect direction: stabilized) (UniProt P11908)
3.65 | LRPPRC (effect direction: stabilized) (UniProt P42704)
< 2.7 | TSEN34 (effect direction: stabilized) (UniProt Q9BSV6)
3.12 | SCCPDH (effect direction: stabilized) (UniProt Q8NBX0)
3.96 | UniProt Q9UPN6 (effect direction: stabilized)
3.94 | HSPA9 (effect direction: stabilized) (UniProt P38646)
< 2.7 | ACTR10 (effect direction: destabilized) (UniProt Q9NZ32)
3.65 | IQGAP1 (effect direction: destabilized) (UniProt P46940)
3.12 | UniProt Q13885 (effect direction: stabilized)
3.07 | UniProt P04350 (effect direction: stabilized)
4.27 | CCNB1 (effect direction: stabilized) (UniProt P14635)
3.38 | KIF21B (effect direction: stabilized) (UniProt O75037)
3.09 | OPA1 (effect direction: destabilized) (UniProt O60313)
3.46 | CDK5 (effect direction: stabilized) (UniProt Q00535)

pEC50 | Target
4.02 | UniProt P24539 (effect direction: stabilized)
3.55 | UniProt P36507 (effect direction: stabilized)
4.09 | PSMC4 (effect direction: stabilized) (UniProt P43686)
3.88 | RPL10 (effect direction: destabilized) (UniProt P27635)
3.22 | ATP2A3 (effect direction: stabilized) (UniProt Q93084)
3.22 | NKTR (effect direction: stabilized) (UniProt P30414)
2.77 | CNOT2 (effect direction: stabilized) (UniProt Q9NZN8)
< 2.7 | EIF3K (effect direction: stabilized) (UniProt Q9UBQ5)
3.54 | GRAP (effect direction: stabilized) (UniProt Q13588)
3.17 | ARG2 (effect direction: destabilized) (UniProt P78540)
3.11 | KIF15 (effect direction: stabilized) (UniProt Q9NS87)
< 2.7 | PCNA (effect direction: stabilized) (UniProt P12004)
< 2.7 | CHORDC1 (effect direction: stabilized) (UniProt Q9UHD1)
< 2.7 | NPM3 (effect direction: stabilized) (UniProt O75607)
3.13 | FAM162A (effect direction: destabilized) (UniProt Q96A26)
3.58 | MRPS6 (effect direction: destabilized) (UniProt P82932)
3.74 | UniProt Q8N4C8 (effect direction: stabilized)
3.07 | RB1 (effect direction: stabilized) (UniProt P06400)
3.18 | ATP1A1 (effect direction: stabilized) (UniProt P05023)
3 | EXOC2 (effect direction: stabilized) (UniProt Q96KP1)
3.46 | ABCC1 (effect direction: stabilized) (UniProt P33527)
< 2.7 | PURB (effect direction: stabilized) (UniProt Q96QR8)
3.48 | DDX20 (effect direction: stabilized) (UniProt Q9UHI6)
